Data published in paper PMC6060382, “Inhibition of α-, β-, γ-, and δ-carbonic anhydrases from bacteria and diatoms with N′-aryl-N-hydroxy-ureas” (Journal of Enzyme Inhibition and Medicinal Chemistry, 2018).
Where two headings read alike, the source gives them in different places.

Assays:
Experiment in all cases: stopped-flow CO2 hydrase assay
PgiCAγ = biological target: T1, PgiCAγ; type: biochemical, Porphyromonas gingivalis; conditions: CO2 hydration, 10 mM Tris pH 8.3, 0.1 M Na2SO4, 25 °C, 15 min preincubation
T1 construct: gene PgiCA

PgiCAβ = biological target: T2, PgiCAβ (Porphyromonas gingivalis, UniProt B2RL07); type: biochemical; conditions: CO2 hydration, 10 mM Tris pH 8.3, 0.1 M Na2SO4, 25 °C, 15 min preincubation
T2 construct: gene PGN_1533
T2 sequence (B2RL07 19-242): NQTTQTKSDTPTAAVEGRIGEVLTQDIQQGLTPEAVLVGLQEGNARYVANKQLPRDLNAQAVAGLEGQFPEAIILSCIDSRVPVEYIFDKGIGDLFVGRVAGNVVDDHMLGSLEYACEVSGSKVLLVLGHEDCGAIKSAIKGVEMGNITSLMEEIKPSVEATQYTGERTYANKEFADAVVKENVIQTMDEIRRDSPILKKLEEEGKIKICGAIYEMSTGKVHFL

VchCAα = biological target: T3, VchCAα (Vibrio cholerae, UniProt Q9KMP6); type: biochemical; conditions: read-out: VchCAα; CO2 hydration, 10 mM HEPES pH 7.5, 0.1 M Na2SO4, 25 °C, 15 min preincubation
T3 construct: gene VC_A0274

TweCAδ = biological target: T4, TweCAδ (Conticribra weissflogii, UniProt Q5U9J1); type: biochemical; conditions: CO2 hydration, 10 mM HEPES pH 7.5, 0.1 M Na2SO4, 25 °C, 15 min preincubation
T4 construct: gene ca1
T4 sequence (Q5U9J1 1-281): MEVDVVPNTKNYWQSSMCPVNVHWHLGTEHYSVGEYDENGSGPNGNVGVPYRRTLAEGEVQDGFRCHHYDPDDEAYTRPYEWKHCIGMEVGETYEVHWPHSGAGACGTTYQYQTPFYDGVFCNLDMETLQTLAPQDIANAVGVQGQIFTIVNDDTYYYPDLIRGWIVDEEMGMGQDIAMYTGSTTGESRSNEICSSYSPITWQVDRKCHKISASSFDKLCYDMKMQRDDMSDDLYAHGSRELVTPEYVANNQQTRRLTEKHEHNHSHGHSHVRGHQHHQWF

VchCAγ = biological target: T5, VchCAγ (Vibrio cholerae, UniProt Q9KVT1); type: biochemical; conditions: CO2 hydration, 10 mM Tris pH 8.3, 0.1 M Na2SO4, 25 °C, 15 min preincubation
T5 construct: gene VC_0058

VchCAβ = biological target: T6, VchCAβ (Vibrio cholerae, UniProt Q9KUD6); type: biochemical
T6 construct: gene VC_0586
T6 sequence (Q9KUD6 1-222): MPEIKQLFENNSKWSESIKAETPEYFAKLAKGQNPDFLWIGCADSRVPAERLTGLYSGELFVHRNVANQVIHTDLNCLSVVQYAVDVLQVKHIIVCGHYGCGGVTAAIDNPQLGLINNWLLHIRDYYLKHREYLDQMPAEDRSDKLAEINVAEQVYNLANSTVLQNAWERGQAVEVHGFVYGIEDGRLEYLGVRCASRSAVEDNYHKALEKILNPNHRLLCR

T5 sequence (Q9KVT1 1-184): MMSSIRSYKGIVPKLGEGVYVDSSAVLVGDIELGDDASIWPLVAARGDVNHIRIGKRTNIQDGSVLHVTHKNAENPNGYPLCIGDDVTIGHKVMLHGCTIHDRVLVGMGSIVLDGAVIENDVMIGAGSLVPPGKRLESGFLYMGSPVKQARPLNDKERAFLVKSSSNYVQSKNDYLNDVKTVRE
T3 sequence (Q9KMP6 21-239 limits assumed): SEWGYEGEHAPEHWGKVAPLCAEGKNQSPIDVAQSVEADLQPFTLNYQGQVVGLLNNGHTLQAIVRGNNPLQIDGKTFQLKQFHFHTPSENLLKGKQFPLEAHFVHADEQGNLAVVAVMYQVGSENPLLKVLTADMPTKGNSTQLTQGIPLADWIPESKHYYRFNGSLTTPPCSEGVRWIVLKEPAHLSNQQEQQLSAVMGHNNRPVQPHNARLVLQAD

SMILES | Ki (PgiCAγ; read-out: VchCAα) | Ki (PgiCAβ; read-out: VchCAα) | Ki (VchCAα) | Ki (TweCAδ; read-out: TweCAδ) | Ki (VchCAγ; read-out: VchCAα) | Ki (VchCAβ; read-out: VchCAα) | Ki (PgiCAγ; read-out: PgiCAγ) | Ki (PgiCAβ; read-out: PgiCAβ) | Ki (TweCAδ; read-out: PgiCAβ) | Ki (VchCAγ; read-out: VchCAγ) | Ki (VchCAβ; read-out: VchCAβ) | Ki (PgiCAβ; read-out: VchCAγ) | Ki (TweCAδ; read-out: VchCAγ) | Ki (TweCAδ; read-out: VchCAα)
CCOC(=O)c1cccc(NC(=O)NO)c1 [compound 11, 11: 3-EtOOC] | > 10000 nM | > 10 µM | > 10 µM | 8.49 µM | > 10 µM | > 10000 nM |  |  |  |  |  |  |  | 
O=C(NO)Nc1ccccc1[N+](=O)[O-] [compound 8, 8: 2-O2N] |  |  | 0.536 µM |  |  |  | 82.3 nM | > 10 µM | > 10 µM | 5.69 µM | 52.5 nM |  |  | 
O=C(NO)Nc1ccc(Cl)cc1 [compound 4, 4: 4-Cl] |  |  | 4.41 µM | 8.74 µM |  |  | 934 nM |  |  | > 10 µM | 541 nM | > 10 µM |  | 
Cc1ccccc1NC(=O)NO [compound 3, 3: 2-CH3] |  |  | 0.829 µM |  |  |  | 4210 nM |  |  | > 10 µM | 377 nM | > 10 µM | > 10 µM | 
Cc1cc(C)cc(NC(=O)NO)c1 [compound 12, 12: 3,5-Me2] |  | > 10 µM | > 10 µM | 0.0578 µM | > 10 µM | > 10000 nM | 5490 nM |  |  |  |  |  |  | 
O=C(NO)Nc1c(F)c(F)c(F)c(F)c1F [compound 16, 16: F5] |  | > 10 µM | > 10 µM | 3.41 µM | > 10 µM | > 10000 nM | 3480 nM |  |  |  |  |  |  | 
O=C(NO)Nc1ccc([N+](=O)[O-])cc1 [compound 7, 7: 4-O2N] |  |  | 0.509 µM |  |  |  | 2700 nM |  |  | > 10 µM | 54.1 nM | > 10 µM | > 10 µM | 
Cc1cc(NC(=O)NO)ccc1F [compound 15, 15: 4-F-3-Me] |  | > 10 µM | > 10 µM | 3.94 µM | > 10 µM | > 10000 nM | 2880 nM |  |  |  |  |  |  | 
Cc1ccc(C)c(NC(=O)NO)c1 [compound 9, 9: 2,5-Me2] |  |  | 0.0975 µM |  |  |  | 84.4 nM | > 10 µM | > 10 µM | 5.5 µM | 59.3 nM |  |  | 
COc1ccccc1NC(=O)NO [compound 19, 19: 2-MeO] | > 10000 nM |  | > 10 µM | 2.88 µM |  | > 10000 nM |  |  |  | 4.75 µM |  |  |  | 
O=C(NO)Nc1ccc(F)cc1 [compound 10, 10: 4-F] | > 10000 nM | > 10 µM | > 10 µM |  | > 10 µM |  |  |  |  |  |  |  |  | > 10 µM
CSc1cccc(NC(=O)NO)c1 [compound 14, 14: 3-MeS] |  | > 10 µM | > 10 µM | 0.052 µM |  | > 10000 nM | 59.8 nM |  |  |  |  |  |  | 
CCOc1ccccc1NC(=O)NO [compound 13, 13: 2-EtO] |  | > 10 µM | > 10 µM | 0.0333 µM |  | > 10000 nM | > 10000 nM |  |  |  |  |  |  | 
O=C(NO)Nc1ccccc1Cl [compound 5, 5: 2-Cl] |  |  | 5.94 µM |  |  |  | 3030 nM |  |  | > 10 µM | 64.2 nM | > 10 µM | > 10 µM | 
O=C(NO)Nc1ccc(Oc2ccccc2)cc1 [compound 20, 20: 4-PhO] | > 10000 nM |  | > 10 µM | 0.761 µM | > 10 µM | > 10000 nM |  |  |  |  |  |  |  | 
O=C(NO)Nc1cccc(Cl)c1 [compound 6, 6: 3-Cl] |  |  | 4 µM |  |  |  | 819 nM |  |  | > 10 µM | 60.3 nM | > 10 µM | > 10 µM | 
O=C(NO)Nc1ccc(C(F)(F)F)cc1 [compound 17, 17: 4-CF3] |  | > 10 µM | > 10 µM | 4.64 µM | > 10 µM | > 10000 nM | 2630 nM |  |  |  |  |  |  | 
Cc1ccc(NC(=O)NO)cc1 [compound 2, 2: 4-CH3] |  |  | 0.111 µM |  |  |  | 298 nM |  |  | > 10 µM | 483 nM | > 10 µM | > 10 µM | 
O=C(NO)Nc1ccc(C(F)(F)F)cc1Cl [compound 18, 18: 4-CF3-2-Cl] | > 10000 nM |  | > 10 µM | 0.856 µM |  | > 10000 nM |  |  |  | 5.43 µM |  |  |  | 
O=C(NO)Nc1ccccc1 [compound 1, 1: H] |  |  | 7.26 µM |  |  |  | 6420 nM |  |  | > 10 µM | 1810 nM | > 10 µM | > 10 µM | 
